Measured values taken from patent US5242908A, “Use of benzylphosphonic acid derivatives for the treatment of diseases caused by viruses” (priority 1990, dated 1993).
Like-named read-outs stand apart in the source and are kept apart here.

Columns and labels:
Herpes simplex 1 = format: in vivo, NMRI mice; conditions: for Survivors: groups of 5 mice
Procedure: The treatment was performed twice daily, starting after the infection. The substances were administered to the experimental animals 5 or 9 times (see Table 1).
The chemotherapeutic action can be seen from Table 1.

in vitro = conditions: hela and vero cells
[1] = po 9 × 0 mg/kg (so in the source)

In the case of COP(=O)(Cc1ccccc1C)OC [A, dimethyl 2-methylbenzylphosphonate], the Average survival time (Herpes simplex 1; po 5 × 2.5 mg/kg) is reported as 10.5 days, the Survivors (Herpes simplex 1; po 5 × 2.5 mg/kg) is reported as 3 and the Average survival time (Herpes simplex 1; po 5 × 25 mg/kg) is reported as 9.0 days. The Survivors (Herpes simplex 1; po 5 × 25 mg/kg) was 3, the Average survival time (Herpes simplex 1; sc 5 × 2.5 mg/kg) was 12.0 days and the Survivors (Herpes simplex 1; sc 5 × 2.5 mg/kg) was 2. It also gave an Average survival time (Herpes simplex 1; sc 5 × 25 mg/kg) of 9.0 days, a Survivors (Herpes simplex 1; sc 5 × 25 mg/kg) of 4 and an Average survival time (Herpes simplex 1; sc 5 × 250 mg/kg) of 9.0 days. It also gave a Survivors (Herpes simplex 1; sc 5 × 250 mg/kg) of 4.

In the case of CCOP(=O)(Cc1ccccc1Br)OCC [C, diethyl 2-bromobenzylphosphonate], the Average survival time (Herpes simplex 1; po 5 × 2.5 mg/kg) is reported as 6.7 days, the Survivors (Herpes simplex 1; po 5 × 2.5 mg/kg) is reported as 2 and the Average survival time (Herpes simplex 1; po 5 × 25 mg/kg) is reported as 8.5 days. For the same compound, the Survivors (Herpes simplex 1; po 5 × 25 mg/kg) was 3, the Average survival time (Herpes simplex 1; po 5 × 250 mg/kg) was 8.0 days and the Survivors (Herpes simplex 1; po 5 × 250 mg/kg) was 2.

With CCOP(=O)(Cc1ccc(Br)cc1)OCC [D, diethyl 4-bromobenzylphosphonate] the Average survival time (Herpes simplex 1; po 5 × 0.25 mg/kg) was 8.7 days, the Survivors (Herpes simplex 1; po 5 × 0.25 mg/kg) was 2 and the Average survival time (Herpes simplex 1; po 5 × 2.5 mg/kg) was 7.0 days. It also gave a Survivors (Herpes simplex 1; po 5 × 2.5 mg/kg) of 2, an Average survival time (Herpes simplex 1; po 5 × 25 mg/kg) of 6.0 days and a Survivors (Herpes simplex 1; po 5 × 25 mg/kg) of 3. For the same compound, the Average survival time (Herpes simplex 1; po 9 × 3 mg/kg) was 8.0 days, the Survivors (Herpes simplex 1; po 9 × 3 mg/kg) was 4 and the Average survival time (Herpes simplex 1; po 9 × 10 mg/kg) was 8.3 days. The Survivors (Herpes simplex 1; po 9 × 10 mg/kg) was 2, the Average survival time (Herpes simplex 1; po 9 × 30 mg/kg) was 10.5 days and the Survivors (Herpes simplex 1; po 9 × 30 mg/kg) was 3. The Average survival time (Herpes simplex 1; sc 5 × 0.25 mg/kg) was 9.0 days, the Survivors (Herpes simplex 1; sc 5 × 0.25 mg/kg) was 1 and the Average survival time (Herpes simplex 1; sc 5 × 2.5 mg/kg) was 8.5 days. It also gave a Survivors (Herpes simplex 1; sc 5 × 2.5 mg/kg) of 3, an Average survival time (Herpes simplex 1; sc 5 × 25 mg/kg) of 8.0 days and a Survivors (Herpes simplex 1; sc 5 × 25 mg/kg) of 4.

With CCOP(=O)(Cc1ccccc1C)OCC [E, diethyl 2-methylbenzylphosphonate] the Average survival time (Herpes simplex 1; [1]) was 7.0 days, the Survivors (Herpes simplex 1; [1]) was 2 and the Average survival time (Herpes simplex 1; po 9 × 3 mg/kg) was 5.7 days. The Survivors (Herpes simplex 1; po 9 × 3 mg/kg) was 1, the Average survival time (Herpes simplex 1; po 9 × 30 mg/kg) was 7.5 days and the Survivors (Herpes simplex 1; po 9 × 30 mg/kg) was 3. The Average survival time (Herpes simplex 1; sc 9 × 3 mg/kg) was 6.3 days, the Survivors (Herpes simplex 1; sc 9 × 3 mg/kg) was 1 and the Average survival time (Herpes simplex 1; sc 9 × 10 mg/kg) was 6.5 days. It also gave a Survivors (Herpes simplex 1; sc 9 × 10 mg/kg) of 3, an Average survival time (Herpes simplex 1; sc 9 × 30 mg/kg) of 6.7 days and a Survivors (Herpes simplex 1; sc 9 × 30 mg/kg) of 2.

Work on CCOP(=O)(Cc1cc(C)ccc1C)OCC [K, diethyl 2,5-dimethylbenzylphosphonate] yielded an Average survival time (Herpes simplex 1; sc 5 × 2.5 mg/kg) of 7.4 days, a Survivors (Herpes simplex 1; sc 5 × 2.5 mg/kg) of 0 and an Average survival time (Herpes simplex 1; sc 5 × 25 mg/kg) of 8.6 days. For the same compound, the Survivors (Herpes simplex 1; sc 5 × 25 mg/kg) was 0, the Average survival time (Herpes simplex 1; sc 5 × 250 mg/kg) was 8.0 days and the Survivors (Herpes simplex 1; sc 5 × 250 mg/kg) was 3.

Cc1ccccc1CP(=O)(OC(C)C)OC(C)C [L, diisopropyl 2-methylbenzylphosphonate] showed a Survivors (Herpes simplex 1; po 5 × 2.5 mg/kg) of 5, an Average survival time (Herpes simplex 1; po 5 × 25 mg/kg) of 8.7 days and a Survivors (Herpes simplex 1; po 5 × 25 mg/kg) of 2. The Average survival time (Herpes simplex 1; po 5 × 250 mg/kg) was 8.7 days, the Survivors (Herpes simplex 1; po 5 × 250 mg/kg) was 2 and the Average survival time (Herpes simplex 1; sc 5 × 2.5 mg/kg) was 8.3 days. The Survivors (Herpes simplex 1; sc 5 × 2.5 mg/kg) was 1, the Average survival time (Herpes simplex 1; sc 5 × 25 mg/kg) was 7.4 days and the Survivors (Herpes simplex 1; sc 5 × 25 mg/kg) was 0. It also gave an Average survival time (Herpes simplex 1; sc 5 × 250 mg/kg) of 6.5 days and a Survivors (Herpes simplex 1; sc 5 × 250 mg/kg) of 3.

Compound CCCCOP(=O)(Cc1ccccc1C)OCCCC [M, di-n-butyl 2-methylbenzylphosphonate] has an Average survival time (Herpes simplex 1; sc 5 × 2.5 mg/kg) of 7.0 days, a Survivors (Herpes simplex 1; sc 5 × 2.5 mg/kg) of 4 and an Average survival time (Herpes simplex 1; sc 5 × 25 mg/kg) of 7.5 days. It also gave a Survivors (Herpes simplex 1; sc 5 × 25 mg/kg) of 3, an Average survival time (Herpes simplex 1; sc 5 × 250 mg/kg) of 7.7 days and a Survivors (Herpes simplex 1; sc 5 × 250 mg/kg) of 1.

Cc1ccccc1CP(=O)(O)O [O, di-triethylammonium 2-methylbenzylphosphonate] gave an MNTC (in vitro) of 133 µg/mL.
